Measured values as given in US9371331B2, “Modulators of methyl modifying enzymes, compositions and uses thereof” (Constellation Pharmaceuticals, Inc., priority 2012, dated 2016).
Where two headings read alike, the source gives them in different places.

Legend:
EZH2 (rPRC2) = EZH2 (rPRC2) (Homo sapiens, UniProt Q15910); test: EZH2 assay: rPRC2, biotinylated oligonucleosomes, 3H SAM methyl transfer (FlashPlate scintillation); assay type: biochemical; conditions: biotinylated oligonucleosome substrate
Y641N EZH2 = Y641N EZH2 (Homo sapiens, UniProt Q15910, Y641N); test: Y641N EZH2 assay: as EZH2 assay, with reconstituted H3K27Me2 oligonucleosomes as substrate; assay type: biochemical
[1] = test system: H3K27me3 mark in HeLa cells; test: H3K27me3 MSD Hela Assay; assay type: cell-based; conditions: read-out: H3K27me3_MSD_HeLa_ (EC50)
Description: Trypsinized HeLa cells were counted and diluted in 10% DMEM (Life Technologies, Cat. #10569) to 5000 cells/75 μL. Seventy-five […] of cells were place in each well of a 96-well flat-bottomed plate and incubated at 37° C. for 4 hours. Twenty-five μL of test compound (at various concentrations) was added to the cells and incubation continued at 37° C. for 96 hours. Media was then removed and the cells rinsed once with ice cold PBS. Forty μL of ice-cold MSD Buffer AT (10 mM HEPES, pH 7.9, 5 mM MgCl2, 0.25M sucrose, Benzonase (1:10000), 1% Triton X-100 supplemented with fresh 1× Protease Inhibitor cocktail and 1 mM 4-(2-Aminoethyl)benzenesulfonyl fluoride hydrochloride (AEBSF)) was added to each well and the plates placed on ice for 30 minutes. Ten μL of 5M NaCl was then added to each well and incubation on ice continued for another 15 minutes. The material in each well was suspended pipetting up and down and then transferred to a new 96 well plate. The emptied wells were rinsed with 150 uL ice-cold 20 mM Tris pH 7.5, 1 mM EDTA, 1 mM EGTA, supplemented with fresh 1× Protease Inhibitor cocktail and 1 mM AEBSF (“NO salt NO detergent buffer) and transferred to the respective wells in the new plate. Three hundred μL of NO Salt NO detergent buffer was then added to each well of lysates and the plates frozen at −80° C.
On the same day, an appropriate number of MSD standard bind 96-well plates were coated with 30 μL/well of total H3 capture antibody (Millipore. Cat #MAB3422) at 1 μg/mL concentration in PBS. The antibody solution was evenly distributed first by tapping gently on the sides of the plates and then by shaking the plates for a few minutes at 1000 rpm. Antibody coated plates were stored at 4° C. overnight.
The next day the lysates are thawed to RT. The antibody coated MSD plates are washed 3× with TBS-T (Tris-buffered saline (Fisher Scientific, Cat #BP2471-1)+0.2% Tween-20). One-hundred fifty μL of 5% Blocker A in TBS-T is added to each well. The wells are covered and shaken on a shaker at RT for one hour. The Blocker A step is repeated a second time. After removing the blocker, 25 μL of cell lysate is transferred into each antibody coated well. The plates are shaken for 2 hours at RT, the lysate removed and the plates again washed with Blocker A in TBS-T. Twenty-five μL of appropriate freshly prepared antibody mix (including both primary and secondary antibodies) is added to each well and the plates shaken for 1 hour at RT.
Both H3 antibodies were obtained from Cell Signalling (Cat #s 4499 and 9733). The goat anti-rabbit antibody was obtained from Meso-Scale Discovery (Cat #R32AB-1).
The antibody mix was then removed and the wells washed with Blocker A. One hundred-fifty μL of freshly prepared 1×MSD Read Buffer (Meso-Scale Discovery; Cat #R927C-2) was then added to each well and the plates read on a MSD Sector 2400 Plate Reader.
Data was analyzed using Assay Assistant (Constellation Pharmaceuticals In-house product) and Activity Base (IDBS Ltd, Surrey, UK) template. Data files were imported to Assay Assistant and assay conditions were specified. A unique Analysis ID was created and the data files exported to Activity Base. An analysis template was created on Activity Base to measure dose-dependent inhibition of H3K27me3 mark and cell viability respectively. Readout of DMSO wells were used to normalize the data. Resulting curves were fitted using Activity base software Model 205 (IDBS Ltd. Surrey, UK). The data was checked for quality, validated and integrated in excel format using SARview (IDBS Ltd, Surrey, UK).

[2] = EZH2 IC50, wild-type EZH2 (rPRC2)
[3] = Y641N EZH2 IC50, Y641N mutant EZH2, H3K27Me2 oligonucleosome substrate
[4] = wild-type EZH2 (rPRC2), read-out: EZH2 IC50
[5] = Y641N mutant EZH2, H3K27Me2 oligonucleosome substrate, read-out: Y641N EZH2 IC50

EZH2 (rPRC2), sequence (Q15910 whole entry): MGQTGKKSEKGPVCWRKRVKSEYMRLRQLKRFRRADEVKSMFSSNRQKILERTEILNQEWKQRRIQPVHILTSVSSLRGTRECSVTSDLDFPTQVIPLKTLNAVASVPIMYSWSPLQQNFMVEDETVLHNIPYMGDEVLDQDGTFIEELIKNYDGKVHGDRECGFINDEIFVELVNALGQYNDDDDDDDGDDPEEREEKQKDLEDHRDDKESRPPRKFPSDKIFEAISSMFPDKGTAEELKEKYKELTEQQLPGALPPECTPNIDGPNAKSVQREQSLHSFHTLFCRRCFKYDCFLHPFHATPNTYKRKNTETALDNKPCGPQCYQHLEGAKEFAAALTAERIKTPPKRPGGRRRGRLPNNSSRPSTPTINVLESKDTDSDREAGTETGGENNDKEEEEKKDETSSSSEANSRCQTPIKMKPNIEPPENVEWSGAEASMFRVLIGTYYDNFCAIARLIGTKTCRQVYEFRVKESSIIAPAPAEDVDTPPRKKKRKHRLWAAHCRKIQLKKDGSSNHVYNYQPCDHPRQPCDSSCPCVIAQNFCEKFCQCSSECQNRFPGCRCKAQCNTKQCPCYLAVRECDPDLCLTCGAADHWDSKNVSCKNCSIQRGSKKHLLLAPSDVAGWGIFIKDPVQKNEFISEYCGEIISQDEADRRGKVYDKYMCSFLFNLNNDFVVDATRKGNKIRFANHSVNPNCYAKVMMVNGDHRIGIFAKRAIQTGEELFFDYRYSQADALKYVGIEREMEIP
EZH2 (rPRC2), sequence (O75530 whole entry partner): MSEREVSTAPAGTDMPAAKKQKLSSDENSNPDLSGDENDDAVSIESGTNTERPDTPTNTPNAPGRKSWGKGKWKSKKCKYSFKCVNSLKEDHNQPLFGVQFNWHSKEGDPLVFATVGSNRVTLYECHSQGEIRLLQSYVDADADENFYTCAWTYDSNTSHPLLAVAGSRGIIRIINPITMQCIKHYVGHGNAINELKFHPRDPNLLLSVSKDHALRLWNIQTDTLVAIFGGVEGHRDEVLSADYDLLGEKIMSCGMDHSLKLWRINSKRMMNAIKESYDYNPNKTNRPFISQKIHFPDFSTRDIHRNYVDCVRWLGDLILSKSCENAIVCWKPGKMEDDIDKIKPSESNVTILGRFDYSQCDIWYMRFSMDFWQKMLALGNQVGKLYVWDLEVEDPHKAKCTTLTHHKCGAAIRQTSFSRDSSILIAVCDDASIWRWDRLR
EZH2 (rPRC2), sequence (Q15022 whole entry partner): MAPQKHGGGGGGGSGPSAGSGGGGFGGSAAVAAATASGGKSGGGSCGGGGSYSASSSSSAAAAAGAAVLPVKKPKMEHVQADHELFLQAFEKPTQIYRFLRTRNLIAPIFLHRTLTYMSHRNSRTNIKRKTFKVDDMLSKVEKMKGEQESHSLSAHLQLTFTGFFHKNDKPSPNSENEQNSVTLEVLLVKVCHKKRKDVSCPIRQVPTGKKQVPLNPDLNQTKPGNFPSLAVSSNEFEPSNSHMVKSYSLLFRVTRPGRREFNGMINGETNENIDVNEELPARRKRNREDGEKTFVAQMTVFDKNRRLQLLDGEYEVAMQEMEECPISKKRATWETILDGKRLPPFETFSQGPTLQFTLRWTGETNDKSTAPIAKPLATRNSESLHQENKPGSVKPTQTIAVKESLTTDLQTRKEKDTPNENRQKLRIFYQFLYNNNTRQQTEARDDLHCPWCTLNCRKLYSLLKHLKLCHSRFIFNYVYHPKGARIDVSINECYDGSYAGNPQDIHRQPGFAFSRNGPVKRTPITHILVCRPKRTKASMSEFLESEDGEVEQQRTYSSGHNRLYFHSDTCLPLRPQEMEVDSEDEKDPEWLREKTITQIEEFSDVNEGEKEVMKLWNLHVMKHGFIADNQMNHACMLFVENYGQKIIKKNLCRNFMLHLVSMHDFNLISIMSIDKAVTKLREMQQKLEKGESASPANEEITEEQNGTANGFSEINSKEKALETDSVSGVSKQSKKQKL
Y641N EZH2, sequence (Q15910 whole entry Y641N): as the sequence (Q15910 whole entry) above, with Y641N counted along it
Y641N EZH2, sequence (O75530 whole entry partner): as the sequence (O75530 whole entry partner) above
Y641N EZH2, sequence (Q15022 whole entry partner): as the sequence (Q15022 whole entry partner) above

Structure (SMILES) | IC50 (EZH2 (rPRC2); [2]) [µM] | IC50 (Y641N EZH2; [3]) [µM] | EC50 ([1]; Homo sapiens, HeLa, 96 h) [µM] | IC50 (EZH2 (rPRC2); [4]) [µM] | IC50 (Y641N EZH2; [5]) [µM] | EC50 ([1]; Homo sapiens, HeLa cells, MSD, 96 hours) [µM] | IC50 (EZH2 (rPRC2); read-out: EZH2 IC50, wild-type EZH2 (rPRC2)) [µM] | EC50 ([1]; HeLa cells, MSD, 96 hours) [µM]
COc1cc(C)[nH]c(=O)c1CNC(=O)c1c(C)n(C(C)CS(C)(=O)=O)c2ccccc12 (single isomer, unassigned) [Compound 279, (R or S)-N-((4-methoxy-6-methyl-2-oxo-1,2-dihydropyridin-3-yl)methyl)-2-methyl-1-(1-(methylsulfonyl)propan-2-yl)-1H-indole-3-carboxamide] | < 0.1 | 0.1 to 1 | 2 to 10 | – | – | – | – | –
Cc1cc(C)c(CNC(=O)c2c(C)n(C(C)c3cccc(Cl)c3)c3ccccc23)c(=O)[nH]1 (racemic) [Compound 181, (±)-1-(1-(3-chlorophenyl)ethyl)-N-((4,6-dimethyl-2-oxo-1,2-dihydropyridin-3-yl)methyl)-2-methyl-1H-indole-3-carboxamide] | < 0.1 | < 0.1 | 0.4 to 2 | – | – | – | – | –
COc1cc(C)[nH]c(=O)c1CNC(=O)c1c(C)n([C@H](C)[C@H](OC)C2CC2)c2ncccc12 (single isomer, unassigned) [Compound 286, 1-((1R or S, 2R or S)-1-cyclopropyl-1-methoxypropan-2-yl)-N-((4-methoxy-6-methyl-2-oxo-1,2-dihydropyridin-3-yl)methyl)-2-methyl-1H-pyrrolo[2,3-b]pyridine-3-carboxamide] | < 0.1 | 0.1 to 1 | 0.4 to 2 | – | – | – | – | –
COc1cc(C)[nH]c(=O)c1CNC(=O)c1c(C)n(C(C)c2ccccc2)c2cnccc12 (racemic) [Compound 243, (±)-N-((4-methoxy-6-methyl-2-oxo-1,2-dihydropyridin-3-yl)methyl)-2-methyl-1-(1-phenylethyl)-1H-pyrrolo[2,3-c]pyridine-3-carboxamide] | < 0.1 | 0.1 to 1 | 2 to 10 | – | – | – | – | –
COc1cc(C)[nH]c(=O)c1CNC(=O)c1c(C)n(C(C)C(OC)C2CC2)c2ncccc12 (stereo not drawn) [Compound 283, 1-(1-cyclopropyl-1-methoxypropan-2-yl)-N-((4-methoxy-6-methyl-2-oxo-1,2-dihydropyridin-3-yl)methyl)-2-methyl-1H-pyrrolo[2,3-b]pyridine-3-carboxamide] | < 0.1 | 0.1 to 1 | 0.4 to 2 | – | – | – | – | –
Cc1ccc(C)c(-n2c(C)c(C(=O)NCc3c(C)cc(C)[nH]c3=O)c3ccccc32)c1 [Compound 191, N-((4,6-dimethyl-2-oxo-1,2-dihydropyridin-3-yl)methyl)-1-(2,5-dimethylphenyl)-2-methyl-1H-indole-3-carboxamide] | – | – | – | < 0.1 | < 0.1 | 2 to 10 | – | –
Cc1cc(C)c(CNC(=O)c2c(C)n([C@H](C)c3ccccc3)c3ncncc23)c(O)n1 [Compound 395, (R)—N-((2-hydroxy-4,6-dimethylpyridin-3-yl)methyl)-6-methyl-7-(1-phenylethyl)-7H-pyrrolo[2,3-d]pyrimidine-5-carboxamide] | < 0.1 | 0.1 to 1 | 2 to 10 | – | – | – | – | –
Cc1cc(C)c(CNC(=O)c2c(C)n(C(C)c3cccc(S(C)(=O)=O)c3)c3ccccc23)c(=O)[nH]1 (racemic) [Compound 210, (±)-N-((4,6-dimethyl-2-oxo-1,2-dihydropyridin-3-yl)methyl)-2-methyl-1-(1-(3-(methylsulfonyl)phenyl)ethyl)-1H-indole-3-carboxamide] | < 0.1 | 0.1 to 1 | 2 to 10 | – | – | – | – | –
COCC(C)n1c(C)c(C(=O)NCc2c(OC)cc(C)[nH]c2=O)c2cccnc21 (single isomer, unassigned) [Compound 256, (R or S)-N-((4-methoxy-6-methyl-2-oxo-1,2-dihydropyridin-3-yl)methyl)-1-(1-methoxypropan-2-yl)-2-methyl-1H-pyrrolo[2,3-b]pyridine-3-carboxamide] | < 0.1 | 0.1 to 1 | 0.4 to 2 | – | – | – | – | –
Cc1cc(C)c(CNC(=O)c2c(C)n(C(C)C3CC3)c3ncccc23)c(=O)[nH]1 (racemic) [Compound 211, (±)-1-(1-cyclopropylethyl)-N-((4,6-dimethyl-2-oxo-1,2-dihydropyridin-3-yl)methyl)-2-methyl-1H-pyrrolo[2,3-b]pyridine-3-carboxamide] | < 0.1 | 0.1 to 1 | 0.4 to 2 | – | – | – | – | –
COCC(C)n1c(C)c(C(=O)NCc2c(C)cc(C)[nH]c2=O)c2ccncc21 (racemic) [Compound 240, (±)-N-((4,6-dimethyl-2-oxo-1,2-dihydropyridin-3-yl)methyl)-1-(1-methoxypropan-2-yl)-2-methyl-1H-pyrrolo[2,3-c]pyridine-3-carboxamide] | < 0.1 | 0.1 to 1 | 2 to 10 | – | – | – | – | –
Cc1cc(C)c(CNC(=O)c2c(C)n(S(=O)(=O)c3ccccc3)c3ccccc23)c(O)n1 [Compound 145, N-((4,6-dimethyl-2-oxo-1,2-dihydropyridin-3-yl)methyl)-2-methyl-1-(phenylsulfonyl)-1H-indole-3-carboxamide] | – | – | 2 to 10 | < 0.1 | 0.1 to 1 | – | – | –
COc1cc(C)[nH]c(=O)c1CNC(=O)c1c(C)n(C(C)c2ccccc2)c2cnccc12 (single isomer, unassigned) [Compound 258, (R or S)-N-((4-methoxy-6-methyl-2-oxo-1,2-dihydropyridin-3-yl)methyl)-2-methyl-1-(1-phenylethyl)-1H-pyrrolo[2,3-c]pyridine-3-carboxamide] | < 0.1 | < 0.1 | 0.4 to 2 | – | – | – | – | –
Cc1cc(C)c(CNC(=O)c2c(C)n(C(C)c3cccc(Br)c3)c3ccccc23)c(=O)[nH]1 (racemic) [Compound 171, (±)-1-(1-(3-bromophenyl)ethyl)-N-((4,6-dimethyl-2-oxo-1,2-dihydropyridin-3-yl)methyl)-2-methyl-1H-indole-3-carboxamide] | < 0.1 | < 0.1 | 2 to 10 | – | – | – | – | –
COc1cc(C)[nH]c(=O)c1CNC(=O)c1c(C)n(C(C)C2CCCNC2)c2ccccc12 (stereo not drawn) [Compound 315, N-((4-methoxy-6-methyl-2-oxo-1,2-dihydropyridin-3-yl)methyl)-2-methyl-1-(1-(piperidin-3-yl)ethyl)-1H-indole-3-carboxamide] | < 0.1 | 0.1 to 1 | > 10 | – | – | – | – | –
Cc1cc(C)c(CNC(=O)c2c(C)n(C(C)c3ccn(C)c(=O)c3)c3ccccc23)c(=O)[nH]1 (racemic) [Compound 222, (±)-N-((4,6-dimethyl-2-oxo-1,2-dihydropyridin-3-yl)methyl)-2-methyl-1-(1-(1-methyl-2-oxo-1,2-dihydropyridin-4-yl)ethyl)-1H-indole-3-carboxamide] | 0.1 to 1 | 0.1 to 1 | > 10 | – | – | – | – | –
COc1cc(C)[nH]c(=O)c1CNC(=O)c1c(C)n(C(C)c2ccccc2)c2cnccc12 (single isomer, unassigned) [Compound 259, (R or S)-N-((4-methoxy-6-methyl-2-oxo-1,2-dihydropyridin-3-yl)rnethyl)-2-methyl-1-(1-phenylethyl)-1H-pyrrolo[2,3-c]pyridine-3-carboxamide] | – | – | – | – | – | – | < 0.1 | 0.4 to 2
CCC(C)n1c(C)c(C(=O)NCc2c(C)cc(C)nc2O)c2ccccc21 (single isomer, unassigned) [Compound 147, (R or S)-1-sec-butyl-N-((2-hydroxy-4,6-dimethylpyridin-3-yl)methyl)-2-methyl-1H-indole-3-carboxamide] | – | – | 0.4 to 2 | – | – | – | – | –
